Reference: BigSolDB 2.1

OC(CN1CCN(CC(O)(Cn2cncn2)c2ccc(F)cc2F)CC1)(Cn1cncn1)c1ccc(F)cc1F (stereo not given)
solubility (mole fraction)
Details	293.15 K	298.15 K	303.15 K	308.15 K	313.15 K
in ethanol	0.000305	0.00036	0.000401	0.000463	0.000548
in n-hexane	9.77e-07	1.17e-06	1.37e-06	1.62e-06	1.92e-06
in n-octanol	6.23e-05	7.87e-05	0.000101	0.000126	0.00016
